Measured values reported in patent US20260092061A1, “COMPOUNDS FOR TARGETED PROTEIN DEGRADATION” (Amphista Therapeutics Limited, priority 2022, published 2026).

How the values were obtained:
BRD9 [1] = biological target: T1, BRD9 (Homo sapiens, UniProt Q9H8M2); assay: Degradation of BRD9 (IF), immunofluorescence in MV4-11 cells, 24 hours (Assay Protocol 2); type: cell-based; set-up: A suspension of MV4-11 cells (ATCC CRL-9591) was prepared; host or cells: MV4-11; conditions: BRD9 degradation; for DC50: Assay protocol 2, read-out: DC50; for Dmax: MV4-11, Assay protocol 2, read-out: Dmax
T1 sequence (Q9H8M2 1-597): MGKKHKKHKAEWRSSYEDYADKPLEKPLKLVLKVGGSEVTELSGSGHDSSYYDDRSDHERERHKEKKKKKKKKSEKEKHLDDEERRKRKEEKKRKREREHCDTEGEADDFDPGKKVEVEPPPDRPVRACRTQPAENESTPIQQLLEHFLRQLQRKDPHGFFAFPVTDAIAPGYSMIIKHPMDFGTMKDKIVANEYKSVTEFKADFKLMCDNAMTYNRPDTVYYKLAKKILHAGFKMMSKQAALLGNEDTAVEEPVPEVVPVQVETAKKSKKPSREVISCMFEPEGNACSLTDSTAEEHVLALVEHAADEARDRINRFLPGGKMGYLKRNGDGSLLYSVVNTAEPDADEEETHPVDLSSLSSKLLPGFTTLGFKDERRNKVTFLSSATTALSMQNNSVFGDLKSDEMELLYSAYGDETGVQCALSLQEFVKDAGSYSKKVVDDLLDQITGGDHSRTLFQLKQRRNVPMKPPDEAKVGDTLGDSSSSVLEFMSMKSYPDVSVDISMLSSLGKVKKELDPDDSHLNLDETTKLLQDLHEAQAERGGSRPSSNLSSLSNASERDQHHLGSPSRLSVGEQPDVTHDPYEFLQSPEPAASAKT
In short: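 MV4-11 cells treated with compound 24 h at 37° C., then fixed, permeabilised and immunostained for BRD9 (anti-BRD9 E4Q3F, Alexa 647 secondary, Hoechst counterstain). High-content imaging quantified nuclear BRD9 signal; % BRD9 remaining normalised to DMSO and 100 nM CFT-8634 controls.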

BRD9 [2] = biological target: T1, BRD9; assay: BRD9 degradation, HiBiT-BRD9 KI HEK293 (LgBiT) cells, NanoGlo Lytic Endpoint assay (Assay Protocol 1); type: cell-based; conditions: Assay protocol 1, BRD9 degradation; for DC50: read-out: DC50; for Dmax: HEK293, read-out: Dmax
In short: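 HiBiT-tagged BRD9 knock-in HEK293 (LgBiT) cells exposed to compounds for 6 h at 37 °C, 5% CO2. Residual BRD9 measured by HiBiT lytic luminescence. % BRD9 remaining normalised to DMSO-treated cells (high) and no-cell wells (low).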

| SMILES | DC50 (BRD9 [1]) [nM] | Dmax (BRD9 [1]) [%] | DC50 (BRD9 [2]) [nM] | Dmax (BRD9 [2]) [%] |
| --- | --- | --- | --- | --- |
| COc1cc(-c2cn(C)c(=O)c(C)c2C)cc(OC)c1CN(C)C(=O)c1ccc2c(c1)CCN(C(=O)/C(C#N)=C/c1cccc(Br)n1)C2C (mixture of isomers) [Compound B17, (E/Z)-2(3-(6-bromopyridin-2-yl)-2-cyanoacryloyl)-N-(2,6-dimethoxy-4-(1,4,5-trimethyl-6-oxo-1,6-dihydropyridin-3-yl)benzyl)-N,1-dimethyl-1,2,3,4-tetrahydroisoquinoline-6-carboxamide] | 25 to 1000 | 40 to 70 | 25 to 1000 | 40 to 70 |
| COc1cc(-c2cn(C)c(=O)c(C)c2C)cc(OC)c1CN1CCN(Cc2cccc3c2CCN(C(=O)/C(C#N)=C/c2ccc(C)cn2)C3C)CC1 (mixture of isomers) [Compound B18, (E/Z)-2-(5-((4-(2,6-dimethoxy-4-(1,4,5-trimethyl-6-oxo-1,6-dihydropyridin-3-yl)benzyl)piperazin-1-yl)methyl)-1-methyl-1,2,3,4-tetrahydroisoquinoline-2-carbonyl)-3-(5-methylpyridin-2-yl)acrylonitrile] | – | 25 to 40 | 1.25 to 10 | 40 to 70 |
| COc1cc(-c2cn(C)c(=O)c(C)c2C)cc(OC)c1CN1CCN(Cc2cccc3c2CCN(C(=O)/C(C#N)=C/c2cc(C)ccn2)C3C)CC1 (mixture of isomers) [Compound B19, (E/Z)-2-(5-((4-(2,6-dimethoxy-4-(1,4,5-trimethyl-6-oxo-1,6-dihydropyridin-3-yl)benzyl)piperazin-1-yl)methyl)-1-methyl-1,2,3,4-tetrahydroisoquinoline-2-carbonyl)-3-(4-methylpyridin-2-yl)acrylonitrile] | – | 40 to 70 | 1.25 to 10 | 40 to 70 |
| COc1cc(-c2cn(C)c(=O)c(C)c2C)cc(OC)c1CN1CCN(Cc2cccc3c2CCN(C(=O)/C(C#N)=C/C2(F)CC2)C3C)CC1 (mixture of isomers) [Compound B20, (E/Z)-2-(5-((4-(2,6-dimethoxy-4-(1,4,5-trimethyl-6-oxo-1,6-dihydropyridin-3-yl)benzyl)piperazin-1-yl)methyl)-1-methyl-1,2,3,4-tetrahydroisoquinoline-2-carbonyl)-3-(1-fluorocyclopropyl)acrylonitrile] | < 1.25 | > 75 | < 1.25 | > 75 |
| COc1cc(-c2cn(C)c(=O)c(C)c2C)cc(OC)c1CN(C)Cc1ccc2c(c1)CCN(C(=O)/C(C#N)=C/c1nc3ccccc3s1)C2C (mixture of isomers) [Compound B21, (E/Z)-3-(benzo[d]thiazol-2-yl)-2-(6-(((2,6-dimethoxy-4-(1,4,5-trimethyl-6-oxo-1,6-dihydropyridin-3-yl)benzyl)(methyl)amino)methyl)-1-methyl-1,2,3,4-tetrahydroisoquinoline-2-carbonyl)acrylonitrile] | < 1.25 | 40 to 70 | 1.25 to 10 | 40 to 70 |
| COc1cc(-c2cn(C)c(=O)c(C)c2C)cc(OC)c1CN1CCN(Cc2cccc3c2CCN(C(=O)/C(C#N)=C/c2cccc(C)n2)C3C)CC1 (mixture of isomers) [Compound B24, (E/Z)-2-(5-((4-(2,6-dimethoxy-4-(1,4,5-trimethyl-6-oxo-1,6-dihydropyridin-3-yl)benzyl)piperazin-1-yl)methyl)-1-methyl-1,2,3,4-tetrahydroisoquinoline-2-carbonyl)-3-(6-methylpyridin-2-yl)acrylonitrile] | 1.25 to 10 | 40 to 70 | < 1.25 | 40 to 70 |
| COc1cc(-c2cn(C)c(=O)c(C)c2C)cc(OC)c1CN1CC2CC(C1)N2Cc1cccc2c1CCN(C(=O)/C(C#N)=C/c1ccnc(C)n1)C2C (mixture of isomers) [Compound B25, (E/Z)-2-(5-((3-(2,6-dimethoxy-4-(1,4,5-trimethyl-6-oxo-1,6-dihydropyridin-3-yl)benzyl)-3,6-diazabicyclo[3.1.1]heptan-6-yl)methyl)-1-methyl-1,2,3,4-tetrahydroisoquinoline-2-carbonyl)-3-(2-methylpyrimidin-4-yl)acrylonitrile] | 1.25 to 10 | > 75 | 1.25 to 10 | > 75 |
| COc1cc(-c2cn(C)c(=O)c(C)c2C)cc(OC)c1CN1CCN(CC(=O)NCCOc2ccc3c(c2)C(C)N(C(=O)/C(C#N)=C/c2nccs2)CC3)CC1 (mixture of isomers) [Compound B29, (E/Z)—N-(2-((2-(2-cyano-3-(thiazol-2-yl)acryloyl)-1-methyl-1,2,3,4-tetrahydroisoquinolin-7-yl)oxy)ethyl)-2-(4-(2,6-dimethoxy-4-(1,4,5-trimethyl-6-oxo-1,6-dihydropyridin-3-yl)benzyl)piperazin-1-yl)acetamide] | 10 to 25 | > 75 | 25 to 1000 | 70 to 75 |
| COc1cc(-c2cn(C)c(=O)c(C)c2C)cc(OC)c1CN1CCN(CC(=O)NCCOc2ccc3c(c2)CCN(C(=O)/C(C#N)=C/c2nccs2)C3C)CC1 (mixture of isomers) [Compound B31, (E/Z)—N-(2-((2-(2-cyano-3-(thiazol-2-yl)acryloyl)-1-methyl-1,2,3,4-tetrahydroisoquinolin-6-yl)oxy)ethyl)-2-(4-(2,6-dimethoxy-4-(1,4,5-trimethyl-1-oxo-1,6-dihydropyridin-3-yl)benzyl)piperazin-1-yl)acetamide] | 10 to 25 | 40 to 70 | – | 40 to 70 |
| COc1cc(-c2cn(C)c(=O)c(C)c2C)cc(OC)c1CN1CCN(CC(=O)NCCOc2cccc(C3CCCN3C(=O)/C(C#N)=C/c3nccs3)c2)CC1 (mixture of isomers) [Compound B32, (E/Z)—N-(2-(3-(1-(2-cyano-3-(thiazol-2-yl)acryloyl)pyrrolidin-2-yl)phenoxy)ethyl)-2-(4-(2,6-dimethoxy-4-(1,4,5-trimethyl-6-oxo-1,6-dihydropyridin-3-yl)benzyl)piperazin-1-yl)acetamide] | 25 to 1000 | 40 to 70 | 25 to 1000 | 40 to 70 |
| COc1cc(-c2cn(C)c(=O)c(C)c2C)cc(OC)c1CN(C)Cc1ccc(C2CCCN2C(=O)/C(C#N)=C/C(C)(C)C)cc1 (mixture of isomers) [Compound B34] | 1.25 to 10 | 40 to 70 | 10 to 25 | 40 to 70 |
| COc1cc(-c2cn(C)c(=O)c(C)c2C)cc(OC)c1CN1CCN(C(=O)c2cccc(C3CCCN3C(=O)/C(C#N)=C/C(C)(C)C)c2)CC1 (mixture of isomers) [Compound B35, (E/Z)-2-(2-(3-(4-(2,6-dimethoxy-4-(1,4,5-trimethyl-6-oxo-1,6-dihydropyridin-3-yl)benzyl)piperazine-1-carbonyl)phenyl)pyrrolidine-1-carbonyl)-4,4-dimethylpent-2-enenitrile] | 10 to 25 | > 75 | 25 to 1000 | > 75 |
| COc1cc(-c2cn(C)c(=O)c(C)c2C)cc(OC)c1CN1CCN(Cc2cccc3c2CCN(C(=O)/C(C#N)=C/C2(C(F)(F)F)CCC2)C3C)CC1 (mixture of isomers) [Compound B36, (E/Z)-2-(5-((4-(2,6-dimethoxy-4-(1,4,5-trimethyl-6-oxo-1,6-dihydropyridin-3-yl)benzyl)piperazin-1-yl)methyl)-1-methyl-1,2,3,4-tetrahydroisoquinoline-2-carbonyl)-3-(1-(trifluoromethyl)cyclobutyl)acrylonitrile] | 25 to 1000 | 40 to 70 | 1.25 to 10 | 40 to 70 |
| COc1cc(-c2cn(C)c(=O)c(C)c2C)cc(OC)c1CN1CCC2(CC1)CCN(c1cccc3c1CCN(C(=O)/C(C#N)=C/C(C)(C)C)C3C)CC2 (mixture of isomers) [Compound B39, (E/Z)-2-(5-(9-(2,6-dimethoxy-4-(1,4,5-trimethyl-6-oxo-1,6-dihydropyridin-3-yl)benzyl)-3,9-diazaspiro[5.5]undecan-3-yl)-1-methyl-1,2,3,4-tetrahydroisoquinoline-2-carbonyl)-4,4-dimethylpent-2-enenitrile] | 10 to 25 | 40 to 70 | 25 to 1000 | > 75 |
| COc1cc(-c2cn(C)c(=O)c(C)c2C)cc(OC)c1CN1CCC2(C1)CN(c1cccc3c1CCN(C(=O)/C(C#N)=C/C(C)(C)C)C3C)C2 (mixture of isomers) [Compound B40, (E/Z)-2-(5-(6-(2,6-dimethoxy-4-(1,4,5-trimethyl-6-oxo-1,6-dihydropyridin-3-yl)benzyl)-2,6-diazaspiro[3.4]octan-2-yl)-1-methyl-1,2,3,4-tetrahydroisoquinoline-2-carbonyl)-4,4-dimethylpent-2-enenitrile] | < 1.25 | 40 to 70 | < 1.25 | 40 to 70 |
